Assay [1] has as its system human colon cancer cell SW620. Put plainly: MTT proliferation assay in combination with CPT-11, SW620. Format: cell-based. As to conditions: medium containing 205 nM CPT-11, 5 days, read-out: IC50, inhibition of proliferation of SW620 combined with CPT-11. The protocol:
Determination of the Inhibitory Effect of the Compound of Example 2 and its Analogues in Combination with CPT-11 on the Proliferation of Human Colon Cancer Cell SW620 Using MTT Assay
The human colon cancer cells SW620 were cultured in RPMI 1640 medium with 10% FBS and used at about 90% confluence for experiments. The SW620 cells were digested with trypsinase and centrifuged at 800 rpm for 5 minutes. The supernatant was discarded and the cell pellets were resuspended with fresh medium (RPMI 1640+10% FBS). The cells were seeded into 96-well cell culture plates with appropriate cell density and incubated at 37° C. overnight in a 5% CO2 incubator. […] The first concentration was 1 μM or 0.333 μM, the last concentration was DMSO negative control (0 μM). 5 μL of solutions of each concentration was added to 120 μL of medium (a 25 times dilution) and mixed by shaking. The cells were cultured overnight and the culture medium was replaced with 195 μL/well of fresh medium containing 205 nM CPT-11 and 5 μL/well of medium containing the test compound (the final concentration of DMSO was 1%). The culture plates were returned to incubator and cultured at 37° C., 5% CO2 for 5 days. At the day of experiment, medium was discarded and replaced with 100 μL of fresh serum-free DMEM medium containing MTT (0.5 mg/mL), and the culture was continued. 4 hours later, the medium was discarded and replaced with 100 μL/well of DMSO, the plate was shaken for 10 minutes in dark and the absorbance was measured at the wavelengths of 552 and 690 nm using a multi-function plate reader. Data were analyzed by Graph Pad Prism 6.0. The inhibitory effects of compounds on cell proliferation were plotted based on cell viability vs. the logarithm of compound concentration. Cell viability %=(ODcompound−ODbackground)/(ODDMSO−ODbackground)×100.
Table 3 summarizes the inhibitory effect data (IC50) of some compounds combined with CPT-11 on the proliferation of human colon cancer cell SW620.

The target in a further assay is T1, ATM kinase (Homo sapiens, UniProt Q13315).
T1 construct: purchased Eurofins 14-933
T1 sequence (Q13315 whole entry): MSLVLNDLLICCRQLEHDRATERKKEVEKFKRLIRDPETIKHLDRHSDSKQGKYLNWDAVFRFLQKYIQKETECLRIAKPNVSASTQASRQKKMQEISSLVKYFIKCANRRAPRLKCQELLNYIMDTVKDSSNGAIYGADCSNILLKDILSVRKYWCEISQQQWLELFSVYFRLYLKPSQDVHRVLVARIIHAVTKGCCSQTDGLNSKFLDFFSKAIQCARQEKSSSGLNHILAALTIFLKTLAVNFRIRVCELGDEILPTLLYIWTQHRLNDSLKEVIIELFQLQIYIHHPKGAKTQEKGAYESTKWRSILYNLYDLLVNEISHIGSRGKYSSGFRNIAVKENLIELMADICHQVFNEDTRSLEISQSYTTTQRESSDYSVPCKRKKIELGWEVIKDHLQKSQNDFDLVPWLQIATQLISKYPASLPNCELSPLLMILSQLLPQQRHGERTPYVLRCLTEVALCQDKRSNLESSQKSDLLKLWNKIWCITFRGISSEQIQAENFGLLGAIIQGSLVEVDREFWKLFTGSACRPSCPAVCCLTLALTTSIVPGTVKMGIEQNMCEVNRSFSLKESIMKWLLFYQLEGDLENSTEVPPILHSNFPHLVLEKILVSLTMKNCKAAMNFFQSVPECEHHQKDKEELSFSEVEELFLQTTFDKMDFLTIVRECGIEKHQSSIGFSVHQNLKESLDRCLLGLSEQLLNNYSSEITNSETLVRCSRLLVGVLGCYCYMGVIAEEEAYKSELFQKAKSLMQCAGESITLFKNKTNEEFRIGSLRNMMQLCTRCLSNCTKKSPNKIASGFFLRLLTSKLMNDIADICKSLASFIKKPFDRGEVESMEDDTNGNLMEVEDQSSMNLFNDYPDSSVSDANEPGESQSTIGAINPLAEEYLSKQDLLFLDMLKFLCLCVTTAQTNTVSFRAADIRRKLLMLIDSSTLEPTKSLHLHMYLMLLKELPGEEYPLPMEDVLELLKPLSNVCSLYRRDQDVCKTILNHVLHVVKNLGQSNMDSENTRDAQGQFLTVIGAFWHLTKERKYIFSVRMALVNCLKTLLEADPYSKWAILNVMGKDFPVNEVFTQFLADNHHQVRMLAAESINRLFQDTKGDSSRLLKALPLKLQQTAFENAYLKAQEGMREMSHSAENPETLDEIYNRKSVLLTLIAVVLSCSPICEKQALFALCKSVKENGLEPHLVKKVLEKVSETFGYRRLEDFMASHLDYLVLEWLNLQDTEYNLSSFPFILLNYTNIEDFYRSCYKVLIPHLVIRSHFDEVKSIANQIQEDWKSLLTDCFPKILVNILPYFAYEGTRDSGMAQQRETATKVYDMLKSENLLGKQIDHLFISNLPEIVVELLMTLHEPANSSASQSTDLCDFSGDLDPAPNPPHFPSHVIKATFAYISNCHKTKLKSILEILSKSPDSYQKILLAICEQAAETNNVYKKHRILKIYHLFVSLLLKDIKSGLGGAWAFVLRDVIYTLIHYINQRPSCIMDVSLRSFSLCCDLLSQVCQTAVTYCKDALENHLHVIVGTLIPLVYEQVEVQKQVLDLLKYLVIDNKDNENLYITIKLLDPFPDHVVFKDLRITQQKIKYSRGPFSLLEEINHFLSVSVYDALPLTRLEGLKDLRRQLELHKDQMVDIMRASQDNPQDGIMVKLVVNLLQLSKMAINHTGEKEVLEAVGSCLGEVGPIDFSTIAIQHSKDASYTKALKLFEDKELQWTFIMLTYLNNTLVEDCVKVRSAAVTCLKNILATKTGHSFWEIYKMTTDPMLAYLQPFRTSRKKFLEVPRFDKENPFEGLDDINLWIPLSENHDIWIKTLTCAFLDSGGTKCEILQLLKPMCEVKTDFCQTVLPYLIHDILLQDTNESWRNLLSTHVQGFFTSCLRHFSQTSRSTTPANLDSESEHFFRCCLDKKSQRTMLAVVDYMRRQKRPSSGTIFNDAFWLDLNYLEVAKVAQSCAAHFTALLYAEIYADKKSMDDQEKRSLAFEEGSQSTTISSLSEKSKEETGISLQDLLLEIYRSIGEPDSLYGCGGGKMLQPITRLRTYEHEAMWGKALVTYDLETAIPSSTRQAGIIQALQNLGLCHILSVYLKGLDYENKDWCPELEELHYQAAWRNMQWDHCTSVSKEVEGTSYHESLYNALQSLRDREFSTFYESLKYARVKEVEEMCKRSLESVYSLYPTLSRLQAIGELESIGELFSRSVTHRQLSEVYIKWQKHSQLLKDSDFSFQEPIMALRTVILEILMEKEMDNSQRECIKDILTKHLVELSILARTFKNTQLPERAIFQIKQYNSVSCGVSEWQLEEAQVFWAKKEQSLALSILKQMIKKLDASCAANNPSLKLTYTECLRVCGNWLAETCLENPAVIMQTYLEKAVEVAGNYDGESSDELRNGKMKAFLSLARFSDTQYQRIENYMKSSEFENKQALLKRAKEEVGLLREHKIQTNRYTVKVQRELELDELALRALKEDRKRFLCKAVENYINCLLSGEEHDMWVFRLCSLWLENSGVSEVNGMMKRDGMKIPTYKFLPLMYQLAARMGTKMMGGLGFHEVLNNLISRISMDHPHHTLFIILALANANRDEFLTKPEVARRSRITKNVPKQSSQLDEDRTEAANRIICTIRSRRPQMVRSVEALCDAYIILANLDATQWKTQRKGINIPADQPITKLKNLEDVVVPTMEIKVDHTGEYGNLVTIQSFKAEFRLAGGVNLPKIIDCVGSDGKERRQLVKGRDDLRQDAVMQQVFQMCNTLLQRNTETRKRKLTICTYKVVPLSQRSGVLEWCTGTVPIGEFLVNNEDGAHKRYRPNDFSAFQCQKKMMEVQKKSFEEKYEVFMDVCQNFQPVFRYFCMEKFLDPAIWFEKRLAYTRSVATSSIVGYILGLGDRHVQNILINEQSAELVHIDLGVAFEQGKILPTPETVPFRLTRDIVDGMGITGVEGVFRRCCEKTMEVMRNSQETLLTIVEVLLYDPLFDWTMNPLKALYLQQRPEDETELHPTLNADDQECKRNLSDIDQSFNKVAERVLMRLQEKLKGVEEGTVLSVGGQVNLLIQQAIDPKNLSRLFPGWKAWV
Briefly: In vitro ATM kinase assay (Cisbio HTRF, p53 substrate). Format: biochemical. The settings on record: 30 μM ATP; for inhibition at 0.0001 µM: Conc. 0.1 nM; for inhibition at 0.0001 µM / inhibition at 0.001 µM / inhibition at 0.01 µM: read-out: Inh % (inhibitory effect on ATM kinase activity); for inhibition at 0.001 µM: Conc. 1 nM; for inhibition at 0.01 µM: Conc. 10 nM. The procedure: Determination of the Inhibitory Effect In Vitro of the Compound of Example 2 and its Analogues on ATM Using In Vitro ATM Kinase Assay
ATM enzymatic activity was measured using Cisbio's HTRF reagent in a 384-well plate (Greiner, #784075). […] The mixtures were centrifuged at 1000 rpm for 1 minute, and reacted in dark for 30 minutes at room temperature. Then, 5 μL of EDTA termination solution (250 mm) was added to terminate the reaction. After 5 μL of detection mixture (Anti-phospho-p53 (ser15)-K (Cisbio, #61P08KAE, 0.084 ng/μL) and Anti-GST-d2 (Cisbio, #61GSTDLA, 5.00 ng/μL)) was finally added to each well, the mixtures were cultured at room temperature over night, and the fluorescence values at 665 nm and 615 nm were measured on Envision 2104. The final concentration of each reagent of the experiment was as follows: 12.5 mM HEPES (pH8.0), 0.5% glycerol, 0.005% Brij-35, 0.625 mM DTT, 0.0125% BSA, 15 nM p53, 0.25 ng/μL ATM, 30 μM ATP, 2.5 mM Mg(AcO)2, 2.5 mM MnCl2, 62.5 mM EDTA, 0.021 ng/μL Anti-phospho-p53, 1.25 ng/μL Anti-GST-d2.
Relative fluorescence ratio was calculated: Ratio665 nm/615 nm−Ratiobackground, and inhibition rate %=(1−(relative fluorescence ratio of test compound well−relative fluorescence ratio of positive control well)/(relative fluorescence ratio of negative control well−relative fluorescence ratio of positive control well))×100 was calculated. Data were analyzed using GraphPad Prism6.0 and fitted using the curve equation: Y=Bottom+(Top−Bottom)/(1+10^((Log IC50−X)*HillSlope)), and IC50 values were calculated.
For orientation: In TR-FRET formats the signal depends on donor and acceptor labels being close together.

Assay [2] concerns human breast cancer cell MDA-MB-468. Put plainly: MTT proliferation assay, MDA-MB-468. The assay is classed as cell-based. The settings on record: Homo sapiens, MDA-MB-468, 168 h, 7 days, single agent, read-out: IC50, inhibition of proliferation of MDA-MB-468. The procedure: Determination of the Inhibitory Effect of the Compound of Example 2 and its Analogues on the Proliferation of Human Breast Cancer Cell MDA-MB-468 Using MTT Assay
The human breast cancer cells MDA-MB-468 were cultured in RPMI 1640 medium with 10% FBS and used at 90% confluence. The MDA-IVB-468 cells were digested with trypsinase and centrifuged at 800 rpm for 5 minutes. The supernatant was discarded and the cell pellets were resuspended with fresh medium and counted. Cells were seeded to 96-well cell culture plates with appropriate cell density and incubated overnight at 37° C., 5% CO2. […] 5 μL of solutions of each concentration was added to 120 μL of medium (diluted by 25 times) and mixed by shaking. The culture medium of cells cultured overnight was discarded and replaced with 195 μL/well of fresh medium (RPMI 1640+5% FBS) and 5 μL/well of diluted medium containing the test compound of corresponding concentrations (the final concentration of DMSO was 1%), and the culture plate was then returned to 5% CO2 incubator at 37° C. for 7 days (on the fourth day, dressing was changed once and culture was continued). On the day of experiment, culture medium was discarded and replaced with 100 μL/well of fresh serum-free DMEM medium containing MTT (0.5 mg/mL), and the culture was continued. After 4 hours, medium was discarded and replaced with 100 μL/well of DMSO, the plates were shaken for 10 minutes in darkness and the absorbance was measured at the wavelengths of 552 and 693 nm using a multi-function plate reader. Graph Pad Prism 6.0 was used to analyze the data. The inhibitory effects of compounds on cell proliferation were plotted based on cell viability vs. the logarithm of compound concentration. Cell viability %=(ODcompound−ODbackground)/(ODDMSO−ODbackground)×100.
Table 4 summarizes the inhibitory effect data (IC50) of some compounds on the proliferation of human breast cancer cell MDA-MB-468.
In general terms: Tetrazolium dyes change colour on reduction, which living cells bring about.

Like-named read-outs stand apart in the source and are kept apart here.

As for `Cc1nc(N2C[C@@H](C)N(C)[C@@H](C)C2)n2c1cnc1ccc(-c3ccc(OCCCN(C)C)nc3)cc12` [Example 18, N,N-dimethyl-3-((5-(3-methyl-1-((3S,5R)-3,4,5-trimethylpiperazin-1-yl)imidazo[1,5-a]quinoxalin-8-yl)pyridin-2-yl)oxy)propan-1-amine], the IC50 in assay [1] was 6.5 nM. Also, on ATM kinase, the inhibition at 0.0001 µM was found to be 30%, the inhibition at 0.001 µM was determined as 87% and the inhibition at 0.01 µM came to 98%. Further, the IC50 in assay [2] is 6.4 nM.

With `Cc1nc(C(C)C)n2c1cnc1ccc(-c3ccc(OCCCN(C)C)nc3)cc12` [Example 19, N,N-dimethyl-3-((5-(1-isopropyl-3-methylimidazo[1,5-a]quinoxalin-8-yl)pyridin-2-yl)oxy)propan-1-amine], the IC50 in assay [1] came to 17.6 nM; in assay [2] it was 11.4 nM. In addition, the inhibition at 0.001 µM on ATM kinase was 88%.

Consider `Cc1nc(C(C)C)n2c1cnc1ccc(-c3ccc(OCCCN(C)C)c(F)c3)cc12` [Example 20, N,N-dimethyl-3-(2-fluoro-4-(1-isopropyl-3-methylimidazo[1,5-a]quinoxalin-8-yl)phenoxy)propan-1-amine], for which the IC50 came out at 35.9 nM in assay [1] and 21.3 nM in assay [2]. Also, the inhibition at 0.001 µM at ATM kinase is 82%.

With `Cc1nc(C(C)C)n2c1cnc1ccc(-c3ccc(OCCCN(C)C)c(C(F)(F)F)c3)cc12` [Example 21, N,N-dimethyl-3-(4-(1-isopropyl-3-methylimidazo[1,5-a]quinoxalin-8-yl)-2-(trifluoromethyl)phenoxy)propan-1-amine], the results for the IC50 in assay [1] and in assay [2] were 29.6 nM and 16.4 nM, respectively. Further, on ATM kinase, the inhibition at 0.001 µM turned out to be 67%.

Take `Cc1nc(C(C)C)n2c1cnc1ccc(-c3ccc(OCCCN4CCCCC4)nc3)cc12` [Example 22, 1-isopropyl-3-methyl-8-(6-(3-(piperidin-1-yl)propoxy)pyridin-3yl)imidazo[1,5-a]quinoxaline]: in assay [1], the IC50 is 16.3 nM. For the same compound, at ATM kinase, the inhibition at 0.0001 µM stood at 31%, the inhibition at 0.001 µM was determined as 94% and the inhibition at 0.01 µM was 100%. Also, the IC50 in assay [2] worked out at 9.91 nM.

With `Cc1nc(C(C)C)n2c1cnc1ccc(-c3ccc(N4CCC(N(C)C)CC4)c(F)c3)cc12` [Example 24, N,N-dimethyl-1-(2-fluoro-4-(1-isopropyl-3-methylimidazo[1,5-a]quinoxalin-8-yl)phenyl)piperidin-4-amine], in assay [1], the IC50 is 20.8 nM. In addition, on ATM kinase, the inhibition at 0.0001 µM is 30%, the inhibition at 0.001 µM worked out at 84% and the inhibition at 0.01 µM turned out to be 98%. In addition, the IC50 in assay [2] turned out to be 11 nM.

With `Cc1nc(C(C)C)n2c1cnc1ccc(-c3ccc(N4CCC(N(C)C)CC4)c(Cl)c3)cc12` [Example 25, N,N-dimethyl-1-(2-chloro-4-(1-isopropyl-3-methylimidazo[1,5-a]quinoxalin-8-yl)phenyl)piperidin-4-amine], the IC50 came out at 66.6 nM in assay [1] and 73.3 nM in assay [2]. Moreover, the inhibition at 0.001 µM on ATM kinase was determined as 69%.

Consider `Cc1nc(C(C)C)n2c1cnc1ccc(-c3ccc(N4CCC(N(C)C)CC4)c(C(F)(F)F)c3)cc12` [Example 26, N,N-dimethyl-1-(4-(1-isopropyl-3-methylimidazo[1,5-a]quinoxalin-8-yl)-2-(trifluoromethyl)phenyl)piperidin-4-amine], for which the IC50 was found to be 51 nM in assay [1] and 48.6 nM in assay [2]. Besides, at ATM kinase, the inhibition at 0.001 µM was 54%.

Take `Cc1nc(N2C[C@@H](C)O[C@@H](C)C2)n2c1cnc1ccc(-c3ccc(OCCCN4CCC4)nc3)cc12` [Example 31, (2S,6R)-4-(8-(6-(3-(azetidin-1-yl)propoxy)pyridin-3-yl)-3-methylimidazo[1,5-a]quinoxalin-1-yl)-2,6-dimethylmorpholine]: the IC50 in assay [1] (Homo sapiens, SW-620, 120 h) worked out at 10.1 nM; at ATM kinase, 0.62 nM; in assay [2], 9.2 nM.

Consider `Cc1nc(N2C[C@@H](C)O[C@@H](C)C2)n2c1cnc1ccc(-c3ccc(OCCCN4CCCC4)nc3)cc12` [Example 32, (2S,6R)-2,6-dimethyl-4-(3-methyl-8-(6-(3-(pyrrolidin-1-yl)propoxy)pyridin-3-yl)imidazo[1,5-a]quinoxalin-1-yl)morpholine], for which the IC50 is 9.2 nM in assay [1] (Homo sapiens, SW-620, 120 h); 0.1 nM at ATM kinase; 7.6 nM in assay [2].

For `Cc1nc(N2C[C@@H](C)O[C@@H](C)C2)n2c1cnc1ccc(-c3ccc(OCCCN4CCCCC4)nc3)cc12` [Example 33, (2S,6R)-2,6-dimethyl-4-(3-methyl-8-(6-(3-(piperidin-1-yl)propoxy)pyridin-3-yl)imidazo[1,5-a]quinoxalin-1-yl)morpholine], the IC50 in assay [1] (Homo sapiens, SW-620, 120 h) was 18.3 nM. On ATM kinase, the IC50 was 0.2 nM, the inhibition at 0.0001 µM came to 28%, the inhibition at 0.001 µM amounted to 92% and the inhibition at 0.01 µM turned out to be 100%. Further, in assay [2], the IC50 came to 18.5 nM.

`Cc1nc(N2C[C@@H](C)O[C@@H](C)C2)n2c1cnc1ccc(-c3ccc(OCCN(C)C)nc3)cc12` [Example 36, 2-((5-(1-((2S,6R)-2,6-dimethylmorpholino)-3-methylimidazo[1,5-a]quinoxalin-8-yl)pyridin-2-yl)oxy)-N,N-dimethylethan-1-amine]: the IC50 was 72.6 nM in assay [1] and 58.8 nM in assay [2]. Moreover, the inhibition at 0.001 µM on ATM kinase is 40%.

Turning to `Cc1nc(N2C[C@@H](C)O[C@@H](C)C2)n2c1cnc1ccc(-c3ccc(OCCCN(C)C)c(C(F)(F)F)c3)cc12` [Example 37], the IC50 in assay [1] worked out at 17.6 nM. Moreover, at ATM kinase, the inhibition at 0.0001 µM was 12%, the inhibition at 0.001 µM was 66% and the inhibition at 0.01 µM was 100%. For the same compound, the IC50 in assay [2] came out at 24.9 nM.
